Values joined by “and” are separate entries in the source; they are usually repeats but may differ in a detail not shown here. Identical values can stand only once.
Tests used:
human bronchial muscle = assay: relaxation of the human bronchial muscle relative to PGE1; type: cell-based; conditions: for relative potency to PGE1: relaxation of human bronchial muscle, PGE1 as standard
Protocol: The compounds prepared as described in Examples I and II, i.e., TR-4681 and TR-4690, were tested to determine their activity in the relaxation of the human bronchial muscle relative to PGE1. […] If potency as a bronchodilator were the only criterion upon which a drug of this type were judged, TR-4690 would be preferred. […] This screen and the results observed in using it to test TR-4681 and TR-4690 are as follows: […]

tracheobronchial tract = assay: irritancy to the tracheobronchial tract: 10 minute aerosol challenge in conscious cats; type: in vivo; conditions: for times less potent an irritant than PGE1: computer program of relative potencies on the data of Tables I and II, PGE1 as standard; for %ΔRR = percent change in respiratory rate / Cough: conscious cats, 10 minute aerosol challenge
Protocol: PGE1 and the test compounds were dissolved in absolute ethanol to give stock solutions of 10 mg/ml. These stock solutions and an ethanol vehicle were diluted using isotonic saline adjusted with phosphate buffer to pH 7.2.
Specific pathogen free cats (Category III) of either sex from the Laboratory Animals Centre were used. Conscious cats (2-4 kg) were restrained in an adjustable Perspex box with their heads protruding into a separate Perspex chamber with a seal around the neck. The respiratory pattern and rate of each cat was recorded via a Fleisch head pneumotachograph protruding into the top of the chamber. Sound was recorded by a microphone also protruding into the chamber. An aerosol of 1-8µm particle size was generated by a Monaghan 670 Ultrasonic nebulizer and passed to the cat's face via an opening in the front of the chamber. Each cat was challenged initially for 10 minutes with an aerosol of isotonic saline adjusted with phosphate buffer to pH 7.2 plus the appropriate concentration of ethanol. This control challenge was followed by a 10 minute aerosol challenge of the test compound of PGE1 in the appropriate vehicle. This 10 minute challenge period is much greater than the brief period of inhalation likely to be used in man, but it does produce a larger number of coughs and enables us to determine the potency of the analogue relative to PGE1 in producing other unwanted side effects.
Seven days were left between successive challenges to avoid the development of tolerance. Both drugs were tested in 5 cats using a wide range of concentrations of aerosol stock solutions. Each cat was observed during and up to 24 hours after the experiment for other side effects, e.g., sedation, diarrhea, and salivation.

SMILES	relative potency to PGE1 (human bronchial muscle)	times less potent an irritant to the tracheobronchial tract than TR-4690 (tracheobronchial tract; compared with TR-4690)	times less potent an irritant than PGE1 (tracheobronchial tract)	%ΔRR = percent change in respiratory rate (tracheobronchial tract; Conc 1.0 µg/ml)	Cough (tracheobronchial tract; Conc 1.0 µg/ml)	%ΔRR = percent change in respiratory rate (tracheobronchial tract; Conc 10.0 µg/ml)	Cough (tracheobronchial tract; Conc 10.0 µg/ml)	%ΔRR = percent change in respiratory rate (tracheobronchial tract; Conc 50.0 µg/ml)	Cough (tracheobronchial tract; Conc 50.0 µg/ml)	%ΔRR = percent change in respiratory rate (tracheobronchial tract; Conc 100.0 µg/ml)	Cough (tracheobronchial tract; Conc 100.0 µg/ml)	%ΔRR = percent change in respiratory rate (tracheobronchial tract; Conc 500.0 µg/ml)	Cough (tracheobronchial tract; Conc 500.0 µg/ml)	times more potent than TR-4681 as a bronchodilator (human bronchial muscle; relaxing human bronchial muscle, compared with TR-4681)	times more potent an irritant than TR-4681 (tracheobronchial tract; compared with TR-4681)
CCC1CC(C)([C@H](O)/C=C/[C@H]2[C@H](O)CC(=O)[C@@H]2CCCCCCC(=O)OC)C1 (stereo partly drawn) [TR-4681, Methyl 11α,15R-dihydroxy-16,18-methano-16-methyl-9-oxoprost-13E-en-l-oate]	1.33	twenty-five times less potent	approximately 50 times	0%	0	+3%	0	+41%	16	+41%	11	+67%	14	–	–
CCCCC[C@H](O)/C=C/[C@H]1[C@H](O)CC(=O)[C@@H]1CCCCCCC(=O)O [PGE1, prostaglandin E1]	–	–	–	–	–	–	–	–	–	–	33 and 31	–	58 and 63	–	–
COC(=O)CCCCCC[C@H]1C(=O)C[C@@H](O)[C@@H]1/C=C/[C@@H](O)C1(C)CCC1 [TR-4690, Methyl 16,19-cyclo-11α,15R-dihydroxy-16-methyl-20-nor-9-oxoprost-13E-en-l-oate]	3.9	–	approximately 2 times	+5%	6	+11%	5	+26%	15	+21%	1	+39%	33	approximately 3 times	approximately 25 times
